The values below come from BindingDB's records for doi:10.1016/j.bmc.2011.04.011 (University of Toyama, 2011).

The assay concerns the target T1, Lysosomal acid glucosylceramidase (Bos taurus, UniProt Q2KHZ8).
T1 sequence (Q2KHZ8 whole entry): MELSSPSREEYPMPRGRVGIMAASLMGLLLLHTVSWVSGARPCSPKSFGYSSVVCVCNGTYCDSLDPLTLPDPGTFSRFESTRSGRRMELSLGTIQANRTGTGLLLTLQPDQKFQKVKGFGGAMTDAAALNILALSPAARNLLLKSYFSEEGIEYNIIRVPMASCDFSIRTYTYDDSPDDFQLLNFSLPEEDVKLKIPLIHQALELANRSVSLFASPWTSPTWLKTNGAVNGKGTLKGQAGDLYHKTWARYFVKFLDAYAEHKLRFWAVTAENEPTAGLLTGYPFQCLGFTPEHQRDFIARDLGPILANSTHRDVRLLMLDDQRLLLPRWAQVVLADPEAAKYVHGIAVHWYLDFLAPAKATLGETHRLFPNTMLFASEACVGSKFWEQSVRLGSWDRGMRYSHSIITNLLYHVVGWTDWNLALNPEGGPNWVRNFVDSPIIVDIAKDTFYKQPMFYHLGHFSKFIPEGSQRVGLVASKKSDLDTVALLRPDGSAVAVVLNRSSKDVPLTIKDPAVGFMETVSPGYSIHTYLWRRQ
Put plainly: Inhibition of bovine liver beta-glucosidase assessed as production of 4-methylumbelliferone using 4-methylumbelliferyl beta-D-glucoside as substrate by spectrophotometry.

Usually pIC50 stands for the negative decadic logarithm of the IC50, by convention in mol/L.

pIC50: −log10 of the molar value.

For `OC[C@H]1CNC[C@@H](O)[C@@H]1O`, the pIC50 was 4.51.
Turning to `OC[C@H]1NCC[C@H](O)[C@@H]1O` [3-epifagomine], the pIC50 was 5.25.
For the molecule `OC[C@H]1NCC[C@@H](O)[C@@H]1O` [(2R,3R,4R)-2-Hydroxymethyl-piperidine-3,4-diol], the pIC50 is 3.60.
As for `OC[C@@H]1CNC[C@H](O)[C@H]1O` [L-Isofagomine], the pIC50 was 3.21.
